Laboratory results taken from US20260256960A1.
Where “and” joins values, the source holds several entries; their conditions need not be identical. Identical values can stand only once. Entries after “also recorded” stand apart in the source; their conditions may differ. Like-named read-outs stand apart in the source and are kept apart here.

Key:
HEBSC from 3×Tg-AD mice = assay: Hippocampal-entorhinal brain slice culture (HEBSC) from 3×Tg-AD mice, lipid / Aβ / LysoTracker staining; type: cell-based, mouse; conditions: for effect on ethanol-induced increase in cytosolic lipid / effect on ethanol-induced increase in intraneuronal Aβ: with ethanol
Experimental: HEBSC was performed using techniques routinely used in the laboratory^2,9,11 Briefly, sections were prepared from either the P7 or adult (6 mo) 3×-Tg-AD hippocampal-entorhinal cortex formation as described by Stoppini et al^16. […] Mice were decapitated, brains extracted and the hippocampal-entorhinal complex dissected in Gey's bugger (Sigma-Aldrich). Slices were cut transversely at 375 μm using a McIlwain tissue chopper and placed on Millicell culture inserts (Millipore, PICMORG50, up to 13 slices per insert). Slices acclimated in culture media (MEM plus 24 mM HEPES and Hank's salts, 25% horse serum, 5.5 g/L glucose, 2 mM L-glutamine) in a humified 5% CO2 incubator for seven days, followed by 12% horse serum for four days, and 6% horse serum until the completion of the experiments.

CX3CR1Cre^ERT.hM4di mice = assay: Microglial Gi DREADD inhibition in CX3CR1Cre^ERT.hM4di mice given ethanol +/- CNO; type: in vivo, mouse; conditions: ten days of ethanol +/- CNO
Experimental: For in vivo studies, heterozygous CX3CR1.Cre^ERT.hM4di were treated with tamoxifen (75 mg/kg/d, i.p.) for 5 days during adulthood (12 weeks of age).

3×Tg-AD mice [1] = tested on: 3×Tg-AD mice
Experimental: (§1) Western blot was performed as reported previously^9,10. Brain tissue from the cerebral cortex was homogenized in lysis buffer (Tris-HCl, pH 7.5, Sucrose, EDTA, EGTA, 1% Triton X-100, protease, and phosphatase inhibitors). […] of protein were loaded into each lane on SDS polyacrylamide gels and were transferred to PVDF membranes. Membranes were washed in TBS and blocked for 1 hour at room temperature (Li-Cor Blocking Solution; 92760001) then were incubated overnight at 4° Celsius with primary antibodies (Table 1). Membranes were washed in TBS with 0.1% Tween-20 (Sigma-Aldrich, St. Louis, MO) then were incubated in the appropriate conjugated secondary antibody (Rockland H & L Pre-absorbed). Membranes were washed again in TBS and visualized using LiCor Image Studio Lite Ver 5.2. Western Blots were analyzed using Image Studio Lite software and each protein of interest was normalized to housekeeping protein GAPDH. […] The protein of interest was normalized to GAPDH for each sample and the percentage change relative to controls was calculated for each blot.

WT mice [2] = conditions: WT cortex, 10-mo mice, ethanol 5 weeks
Experimental: as §1

3×Tg-AD mice [3] = tested on: 3×Tg-AD mice; remark: listed apart in the source
Description: mRNA was extracted from frozen cortex or hippocampus as reported^10. Briefly, samples were homogenized with Trizol (Invitrogen) and RNA was isolated by chloroform extraction, followed by reverse transcription as described previously 11. SYBR green PCR master mix (Applied Biosystems, Foster City, CA) was used for qRT-PCR analysis. Primer sequences were designed using the National Library of Medicine Primer-BLAST tool or were obtained from PrimerBank database (Table 1) 12-14. Only primers with no predicted non-specific targets and single peak melt curves were used. Genes of interest were normalized to the expression of the reference gene 18S using the cycle threshold (Ct) value of each target gene product. The ΔΔCt method was used to compare relative differences between control and treatment groups, and the ratio by 18S or the percent change relative to 18S were used in analysis.

WT mice [4] = tested on: WT mice
3×Tg-AD mice [5] = tested on: 3×Tg-AD mice; remark: listed apart in the source
[6] = 5 g/kg/d i.g., 20% ethanol w/v, at 1 hour; cited from earlier work
[7] = 3×Tg-AD cortex, listed as ethanol
[8] = HEBSC from adult 3×Tg-AD mice, ENT region

C[N+]1([O-])CCN(C2=Nc3cc(Cl)ccc3Nc3ccccc32)CC1 [CNO]
effect on ethanol-induced increase in cytosolic lipid (HEBSC from 3×Tg-AD mice; HEBSC from 3×Tg-AD mice): prevented | effect on ethanol-induced proinflammatory activation of microglia in ENT (IF) (CX3CR1Cre^ERT.hM4di mice): prevented | effect on ethanol-induced increases in total and neuronal lipid (CX3CR1Cre^ERT.hM4di mice; ENT): prevented

CCO [Ethanol, ethanol]
increase of active p-Tyr216 GSK3β (3×Tg-AD mice [1]; 3×Tg-AD): 17% | reduction of inactive pSer9 GSK3β (3×Tg-AD mice [1]; 3×Tg-AD): 15.6% | effect on BACE1 levels (3×Tg-AD mice [1]; 3×Tg-AD cortex): no effect | effect on PSEN1 levels (3×Tg-AD mice [1]; 3×Tg-AD cortex): no effect | increase in LAMP1 protein (3×Tg-AD mice [1]; 3×Tg-AD cortex): 26% | increase in LC3 (LC3-II) protein (3×Tg-AD mice [1]; 3×Tg-AD cortex): 20% | increase in P62 protein (3×Tg-AD mice [1]; 3×Tg-AD cortex): 20% | increase in p-mTOR (3×Tg-AD mice [1]; 3×Tg-AD cortex): ~ 2 fold | reduction in Beclin-1 protein (3×Tg-AD mice [1]; 3×Tg-AD cortex): 14% | reduction in LAL protein (3×Tg-AD mice [1]; 3×Tg-AD cortex): 19% | reduction in TFEB protein (3×Tg-AD mice [1]; 3×Tg-AD cortex): 20% | increase in p-mTOR (3×Tg-AD mice [1]; [7]): 2 fold | reduction in Beclin-1 protein (3×Tg-AD mice [1]; [7]): 20% | increase in LAMP1, females (WT mice [2]): ~ 33% | reduction in Beclin-1 protein, females (trend, p=0.08) (WT mice [2]): 13% | reduction in Beclin-1 protein, males (WT mice [2]): 12% | reduction in LC3A/B (WT mice [2]): 12% | increase in P62 protein, females (WT mice [2]; not altered in males): 33% | LAL (LIPA) gene expression (3×Tg-AD mice [3]; 3×Tg-AD): reduced | effect on hMAPT expression, cortex or hippocampus (3×Tg-AD mice [3]; 3×Tg-AD): No effect | effect on expression of human APP (hAPP) transgene, cortex (3×Tg-AD mice [3]; 3×Tg-AD cortex): no effect | increase in hAPP expression, male hippocampus (3×Tg-AD mice [3]; 3×Tg-AD males, no change in females): 38% | increase in total Aβ in ENT (WT mice [4]; 5 weeks ethanol): 36% | increase in lipid levels in ENT (WT mice [4]; chronic ethanol): 83% | increase in lysosomal lipid in ENT (WT mice [4]; chronic ethanol): ~ 2 fold | increase in lysosomal lipid in ENT (WT mice [4]; chronic ethanol, listed as ethanol): 2.5 fold | increase in Aβ (HEBSC from 3×Tg-AD mice; HEBSC, ethanol): 2 fold | increase in cytosolic lipid (HEBSC from 3×Tg-AD mice; HEBSC, ethanol): 2 fold | reduction of lysosomal acidification (LysoTracker red) (HEBSC from 3×Tg-AD mice; ethanol 100 mM, 4 days): 50% | increase in TUNEL+ neurodegeneration in ENT (3×Tg-AD mice [5]; 3×Tg-AD): 2.5 fold and 3 fold | increase in cytosolic lipid (LipidSpot), ENT (3×Tg-AD mice [5]; 3×Tg-AD): 88% | increase in cytosolic lipid (LipidSpot), FCX (3×Tg-AD mice [5]; 3×Tg-AD): 38% | increase in extra-lysosomal cytoplasmic Aβ, ENT (3×Tg-AD mice [5]; 3×Tg-AD): 1.9 fold | increase in extra-lysosomal cytoplasmic Aβ, FCX (3×Tg-AD mice [5]; 3×Tg-AD): 1.8 fold | increase in intraneuronal Aβ (IF), ENT (3×Tg-AD mice [5]; 3×Tg-AD): 59% | increase in intraneuronal Aβ (IF), FCX (3×Tg-AD mice [5]; 3×Tg-AD): 52% | increase in lipid within Aβ+ neurons, ENT (3×Tg-AD mice [5]; 3×Tg-AD): 2.2 fold | increase in lipid within Aβ+ neurons, FCX (3×Tg-AD mice [5]; 3×Tg-AD): 75% | increase in lysosomal lipid in Aβ+ neurons, ENT (3×Tg-AD mice [5]; 3×Tg-AD): 3.3 fold | increase in lysosomal lipid in Aβ+ neurons, FCX (3×Tg-AD mice [5]; 3×Tg-AD): ~ 75% and 75% | increase in lysosomes in Aβ+ neurons, FCX and ENT (3×Tg-AD mice [5]; 3×Tg-AD): 2 fold | increase in p-tau181 in FCX (3×Tg-AD mice [5]; 3×Tg-AD): 40% | increase in p-tau-181 in CA1 and FCX (3×Tg-AD mice [5]; 3×Tg-AD): 40% | reduction in total LAL in ENT and SUB (3×Tg-AD mice [5]; 3×Tg-AD): ~50% | increase in Aβ plaques, female subiculum, dorsal (3×Tg-AD mice [5]; 3×Tg-AD females): 91% | increase in Aβ plaques, female subiculum, ventral (3×Tg-AD mice [5]; 3×Tg-AD females): 127% | increase in amyloid plaques in SUB (3×Tg-AD mice [5]; 3×Tg-AD females): 2 fold | Aβ1-42 in FCX (3×Tg-AD mice [5]; 3×Tg-AD, both sexes): increased | increase in pathogenic intraneuronal Aβ1-42 in ENT, FCX and SUB (3×Tg-AD mice [5]; 3×Tg-AD, both sexes): 55-60% | increase in microglial (Iba-1+) lipid (3×Tg-AD mice [5]; 3×Tg-AD, chronic ethanol): 2 fold and ~ 2 fold | increase in LAMP1+ lysosomes in Aβ-containing neurons, FCX (3×Tg-AD mice [5]; 3×Tg-AD, ethanol-treated females): ~ 2 fold | increase in intraneuronal Aβ1-42 in ENT (3×Tg-AD mice [5]; 3×Tg-AD, midlife ethanol vs control): 57% | increase in cytosolic lipid (LipidSpot), ENT (3×Tg-AD mice [5]; 3×Tg-AD, listed as EtOH): 80% | reduction of Aβ lysosomal:extra-lysosomal cytoplasmic (lyso:cyto) ratio, FCX and ENT (3×Tg-AD mice [5]; 3×Tg-AD, stated for ethanol and obesity together): ~ 20% | peak blood alcohol concentration [6]: ~ 290 mg/dL and ~ 280 mg/dL

O=C(Oc1nsnc1N1CCCCC1)N1CCCCC1 [LAListat]
effect on cytosolic lipid levels (HEBSC from 3×Tg-AD mice; [8]): concentration-dependent increase; also recorded: dose-dependent increase | effect on intraneuronal Aβ in ENT (HEBSC from 3×Tg-AD mice; [8]): concentration-dependent increase; also recorded: dose-dependent increase

O=c1c(-c2ccc(O)cc2)coc2cc(O)cc(O)c12 [genistein]
effect on ethanol-induced increase in cytosolic lipid (HEBSC from 3×Tg-AD mice; HEBSC from 3×Tg-AD mice): did not abolish; also recorded: did not reduce; also recorded: no effect

B1: rLAL: recombinant lysosomal acid lipase / sebelipase (protein, UniProt P38571 77-399, looked up)
Lysosomal acid …: GPKPVVFLQHGLLADSSNWVTNLANSSLGFILADAGFDVWMGNSRGNTWSRKHKTLSVSQDEFWAFSYDEMAKYDLPASINFILNKTGQEQVYYVGHSQGTTIGFIAFSQIPELAKRIKMFFALGPVASVAFCTSPMAKLGRLPDHLIKDLFGDKEFLPQSAFLKWLGTHVCTHVILKELCGNLCFLLCGFNERNLNMSRVDVYTTHSPAGTSVQNMLHWSQAVKFQKFQAFDWGSSAKNYFHYNQSYPPTYNVKDMLVPTAVWSGGHDWLADVYDVNILLTQITNLVFHESIPEWEHLDFIWGLDAPWRLYNKIINLMRKYQ
reduction of baseline Aβ levels (HEBSC from 3×Tg-AD mice; HEBSC from 3×Tg-AD mice): 50% | effect on ethanol-induced increase in cytosolic lipid (HEBSC from 3×Tg-AD mice; HEBSC from 3×Tg-AD mice): blocked | effect on ethanol-induced increase in intraneuronal Aβ (HEBSC from 3×Tg-AD mice; HEBSC from 3×Tg-AD mice): abolished | effect on ethanol-induced increase in intraneuronal Aβ (HEBSC from 3×Tg-AD mice; HEBSC from 3×Tg-AD mice, listed as Recombinant LAL): blocked
